These results are taken from article PMC5473940, “SAF-A Regulates Interphase Chromosome Structure through Oligomerization with Chromatin-Associated RNAs” (Cell, 2017).

Holding throughout (type): binding
Experiment [1] deals with T1, SAF-A AAA+ domain (His-tagged AAA+ fragment) (Homo sapiens, UniProt Q00839, D580A, form not given).
T1 construct: gene HNRNPU; AAA+ domain fragment, N-terminal 6xHis in pET32a, E. coli BL21(DE3); exact borders not in text (AAA domain modelled as aa 469-653)
The experiment is described as follows: intrinsic fluorescence quenching (ex […] nm, em […] nm). The settings on record: pH 7.5, 37 °C, 10 mM MgCl2, 125 mM NaCl, 5 mM DTT; Walker B mutant.

Experiment [2] has as its target T2, SAF-A AAA+ domain (His-tagged AAA+ fragment) (Homo sapiens, UniProt Q00839, K510A, form not given).
T2 construct: gene HNRNPU; AAA+ domain fragment, N-terminal 6xHis in pET32a, E. coli BL21(DE3); exact borders not in text (AAA domain modelled as aa 469-653)
Described as above. The conditions noted are these: pH 7.5, 37 °C, 10 mM MgCl2, 125 mM NaCl, 5 mM DTT; Walker A mutant.

The target in experiment [3] is T3, SAF-A AAA+ domain (His-tagged AAA+ fragment) (Homo sapiens, UniProt Q00839).
T3 construct: gene HNRNPU; AAA+ domain fragment, N-terminal 6xHis in pET32a, E. coli BL21(DE3); exact borders not in text (AAA domain modelled as aa 469-653)
T3 sequence (Q00839 488-672 limits assumed): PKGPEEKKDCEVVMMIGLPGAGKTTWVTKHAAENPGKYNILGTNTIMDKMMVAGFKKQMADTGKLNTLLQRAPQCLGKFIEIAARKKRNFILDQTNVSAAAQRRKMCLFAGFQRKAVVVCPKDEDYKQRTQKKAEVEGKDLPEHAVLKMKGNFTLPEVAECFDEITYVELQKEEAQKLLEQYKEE
The experiment is described as above.

Experiment [4] concerns the target T4, FLAG-tagged full-length SAF-A (Homo sapiens, UniProt Q00839).
T4 construct: gene HNRNPU
Description: stabilisation of immuno-purified oligomer, native PAGE western blot. The settings on record: 1 mM nucleotide, 37 °C, 10 mM DTT to reverse cross-links.

The structures appear in SMILES notation.

T2 sequence (Q00839 507-691 K510A limits assumed): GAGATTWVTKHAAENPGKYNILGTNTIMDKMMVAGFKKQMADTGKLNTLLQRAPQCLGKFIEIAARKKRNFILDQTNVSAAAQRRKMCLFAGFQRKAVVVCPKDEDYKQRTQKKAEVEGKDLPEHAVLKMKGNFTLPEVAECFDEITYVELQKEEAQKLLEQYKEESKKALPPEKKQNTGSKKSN
T4 sequence (Q00839 2-806 isoform Q00839-2): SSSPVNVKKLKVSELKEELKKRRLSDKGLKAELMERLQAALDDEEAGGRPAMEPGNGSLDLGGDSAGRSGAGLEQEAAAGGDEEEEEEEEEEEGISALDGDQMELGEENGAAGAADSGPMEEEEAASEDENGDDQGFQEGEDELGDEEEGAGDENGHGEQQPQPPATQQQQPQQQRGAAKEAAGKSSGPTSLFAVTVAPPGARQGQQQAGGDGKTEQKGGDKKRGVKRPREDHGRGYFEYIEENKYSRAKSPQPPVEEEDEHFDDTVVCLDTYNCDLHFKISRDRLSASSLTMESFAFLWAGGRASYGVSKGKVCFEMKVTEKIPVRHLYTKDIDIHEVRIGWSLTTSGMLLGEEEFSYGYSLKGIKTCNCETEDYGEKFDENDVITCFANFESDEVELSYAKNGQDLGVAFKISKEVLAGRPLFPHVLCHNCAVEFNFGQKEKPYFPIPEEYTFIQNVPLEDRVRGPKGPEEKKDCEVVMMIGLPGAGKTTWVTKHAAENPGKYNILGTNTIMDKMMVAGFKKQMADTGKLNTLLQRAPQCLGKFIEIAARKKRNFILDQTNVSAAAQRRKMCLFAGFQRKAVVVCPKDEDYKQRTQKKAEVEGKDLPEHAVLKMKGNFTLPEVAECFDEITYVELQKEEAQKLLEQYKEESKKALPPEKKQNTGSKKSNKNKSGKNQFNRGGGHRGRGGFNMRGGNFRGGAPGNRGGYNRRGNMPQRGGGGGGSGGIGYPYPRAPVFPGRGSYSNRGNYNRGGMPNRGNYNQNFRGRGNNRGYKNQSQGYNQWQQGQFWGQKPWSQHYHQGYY
T1 sequence (Q00839 507-691 D580A limits assumed): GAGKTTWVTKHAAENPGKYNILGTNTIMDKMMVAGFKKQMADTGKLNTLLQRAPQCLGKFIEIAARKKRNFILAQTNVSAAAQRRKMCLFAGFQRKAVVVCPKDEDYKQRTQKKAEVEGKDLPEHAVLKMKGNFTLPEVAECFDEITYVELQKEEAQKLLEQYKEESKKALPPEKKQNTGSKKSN

In the case of `Nc1ncnc2c1ncn2[C@@H]1O[C@H](COP(=O)(O)OP(=O)(O)OP(=O)(O)O)[C@@H](O)[C@H]1O` [ATP], the Kd came out at 29 µM in experiment [1] and 38 µM in experiment [3]. The “ATP binding abrogated (no binding)” value in experiment [2] is reported as “Mutation of the Walker A motif abrogated ATP binding”. Further, the “stabilisation of immuno-purified oligomer, native PAGE western blot” value in experiment [4] is “ATP or ATPγS stabilized the oligomers”.
